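Values below derive from 48-hour exposures of cells grown in 96-well plates, with endpoints linearly interpolated between the two concentrations bracketing the appropriate inhibition level. TGI marks complete inhibition of growth.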
How the values were obtained:
Test in all cases: inhibition of tumour cell growth, NCI panel, 48 h
786-0 renal = system: 786-0 renal
A549 NSCLC = system: A549 NSCLC
CAKI-1 renal = system: CAKI-1 renal
COLO 205 colon = system: COLO 205 colon
DLD-1 colon = system: DLD-1 colon
DMS 114 small cell lung = system: DMS 114 small cell lung
DMS 273 small cell lung = system: DMS 273 small cell lung
EKVX NSCLC = system: EKVX NSCLC
HCC-2998 colon = system: HCC-2998 colon
HCT-116 colon = system: HCT-116 colon
HCT-15 colon = system: HCT-15 colon
HOP-18 NSCLC = system: HOP-18 NSCLC
IGROV1 ovarian = system: IGROV1 ovarian
KM12 colon = system: KM12 colon
KM20L2 colon = system: KM20L2 colon
LXFL 529 NSCLC = system: LXFL 529 NSCLC
M14 melanoma = system: M14 melanoma
M19-MEL melanoma = system: M19-MEL melanoma
MALME-3M melanoma = system: MALME-3M melanoma
NCI-H226 lung = system: NCI-H226 lung
NCI-H23 lung = system: NCI-H23 lung
NCI-H460 lung = system: NCI-H460 lung
NCI-H522 lung = system: NCI-H522 lung
OVCAR-3 ovarian = system: OVCAR-3 ovarian
OVCAR-4 ovarian = system: OVCAR-4 ovarian
OVCAR-5 ovarian = system: OVCAR-5 ovarian
OVCAR-8 ovarian = system: OVCAR-8 ovarian
RPMI-8226 leukemia = system: RPMI-8226 leukemia
RXF 393 renal = system: RXF 393 renal
RXF-631 renal = system: RXF-631 renal
SF-268 CNS = system: SF-268 CNS
SF-295 CNS = system: SF-295 CNS
SF-539 CNS = system: SF-539 CNS
SK-MEL-2 melanoma = system: SK-MEL-2 melanoma
SK-MEL-28 melanoma = system: SK-MEL-28 melanoma
SN12C renal = system: SN12C renal
SNB-19 CNS = system: SNB-19 CNS
SNB-75 CNS = system: SNB-75 CNS
SNB-78 CNS = system: SNB-78 CNS
SR leukemia = system: SR leukemia
SW-620 colon = system: SW-620 colon
TK-10 renal = system: TK-10 renal
U251 CNS = system: U251 CNS
UACC-62 melanoma = system: UACC-62 melanoma
UO-31 renal = system: UO-31 renal

CCOc1ccc([Se][Se]c2ccc(OCC)cc2)cc1
TGI (786-0 renal): > 100 µM | TGI (A549 NSCLC): > 100 µM | TGI (CAKI-1 renal): 49.6 µM | TGI (COLO 205 colon): > 100 µM | TGI (DLD-1 colon): > 100 µM | TGI (DMS 114 small cell lung): > 100 µM | TGI (DMS 273 small cell lung): > 100 µM | TGI (EKVX NSCLC): > 100 µM | TGI (HCC-2998 colon): > 100 µM | TGI (HCT-116 colon): > 100 µM | TGI (HCT-15 colon): > 100 µM | TGI (HOP-18 NSCLC): > 100 µM | TGI (IGROV1 ovarian): > 100 µM | TGI (KM12 colon): > 100 µM | TGI (KM20L2 colon): > 100 µM | TGI (LXFL 529 NSCLC): > 100 µM | TGI (M14 melanoma): > 100 µM | TGI (M19-MEL melanoma): > 100 µM | TGI (MALME-3M melanoma): > 100 µM | TGI (NCI-H226 lung): > 100 µM | TGI (NCI-H23 lung): 54.9 µM | TGI (NCI-H460 lung): > 100 µM | TGI (NCI-H522 lung): > 100 µM | TGI (OVCAR-3 ovarian): > 100 µM | TGI (OVCAR-4 ovarian): > 100 µM | TGI (OVCAR-5 ovarian): > 100 µM | TGI (OVCAR-8 ovarian): > 100 µM | TGI (RPMI-8226 leukemia): > 100 µM | TGI (RXF 393 renal): > 100 µM | TGI (RXF-631 renal): > 100 µM | TGI (SF-268 CNS): > 100 µM | TGI (SF-295 CNS): > 100 µM | TGI (SF-539 CNS): > 100 µM | TGI (SK-MEL-2 melanoma): > 100 µM | TGI (SK-MEL-28 melanoma): > 100 µM | TGI (SN12C renal): > 100 µM | TGI (SNB-19 CNS): > 100 µM | TGI (SNB-75 CNS): > 100 µM | TGI (SNB-78 CNS): > 100 µM | TGI (SR leukemia): > 100 µM | TGI (SW-620 colon): > 100 µM | TGI (TK-10 renal): > 100 µM | TGI (U251 CNS): 96.8 µM | TGI (UACC-62 melanoma): > 100 µM | TGI (UO-31 renal): > 100 µM
